Data from PMC11984388, “A brain-accessible peptide modulates stroke inflammatory response and neurotoxicity by targeting BDNF-receptor TrkB-T1 specific interactome” (Theranostics, 2025).

Test: Infarct volume after photothrombotic permanent ischemia
Assay type: in vivo, mice
Conditions: 24 h; for Decrease of infarct volume: versus TMyc, 3 nmol/g i.v. 1 h after damage
Procedure: Permanent focal ischemia was induced in cerebral cortex of adult male and female mice by microvascular photothrombosis as described with modifications. Brain injury involves vascular endothelium damage and platelet activation, followed by microvascular thrombotic occlusion of a particular region selected for illumination using a stereotaxic frame. Coordinates were +0.2 AP, +2 ML relative to Bregma and damaged area corresponded to primary motor and somatosensory cortex. For neuroprotection, a single dose (3 nmol/g) of peptides TMyc or TT1Ct (see below) was administered 1 h after damage initiation. Further details of the procedures, including measurement of infarct volume and evaluation of motor coordination and balance, are detailed as Supplementary material.
Antibodies, chemica ls and recombinant proteins, cell-penetrating peptides , prime rs , commercial as says , experimental models, recombinant DNAs and software ar e des cribe d in the Table S1, included as Supplementary material.
Animal procedures were performed follow ing Europea n Union Directive 2010/63/ EU and were approved by the CS I C and Comunidad de Ma drid (Ref PROEX 276.6/20) ethics committees.
Hous ing facilities were approved by Comunidad de Ma drid (#ES 280790000188) and conform to official regulations. Animals had sta ndard health and immune sta tus and were looked af ter by profes sional caretake rs daily. Ma l e and female mice were kept in groups of up to five in sta ndard IVC cage s while 1–2 pregnant rats occupied sta ndard cage s, always containing bedding and nes ting materials. Animals were under controlled lighting conditions (12 h light cycles ), relative humidity and temperature. Irradiated food and water were provided ad libitum.
We trie d to minimiz e animal suffering and reduce the number of sa cri f i ced animals .
Mi c e model of isc he mia by microv ascular photothr ombosis to study in vivo excitotoxicity This model of permanent focal isc hemia mimics embolic or thrombotic occlus ion of sm a ll ar ter ie s, which is freque ntly found in human stroke, and caus es a focal brain damage with histological and MR I corre lations to human patterns. The procedure was as previously des cribe d with some modific ations . Ma l e and female Ba lb/c OlaHsd mice (23–31 g; 10–16 weeks of age; Envigo Rms , Spain S.L.) were allowed to acc limatize to our facilities for at least 1 week af ter delivery, before isc hemic induction. They were kept with the sa m e cage mates, and daily examined to chec k their health sta tus . Mi c e were anes thetized with isoflurane (5% for induction, 2% for maintenance in oxygen; Abbot Labora tories , Ma drid, Spain) and then placed in a ste reotaxic frame (Naris hige Group, Tokyo, Ja pan). Body temperature was maintained at 36–37°C using a se l f-regulating heating blanket (Cibertec, Ma drid, Spain). A midline sc al p incision was made, the skull was expos ed, and both Bregma and Lambda points were identifie d.
A cold- light (Sc hott KL 2500 LCD; Schott Glas s, Ma inz, Germany) with a fibre optic bundle of 1.5 mm in diameter was centred using a micromanipula tor on the right side , at 0.2 mm anterior and 2.0 mm lateral (+0.2 AP, +2 ML ) relative to Bregma. […] Five minutes later, the brain was illumina ted (600 lms, 3,000 K) through the intact […]
skull for 10 min. Br ain injury encompas se s damage to vas cular endothelium, platelet activation, and subs equent microvascula r thrombotic occlus ion of the irradiate d region. The ar eas underneath this ste reotaxic position that result irradiate d ar e the prima ry motor cortex and the prima ry soma tos ens ory cortex (hindlimb and forelimb). Once completed surgery, the incision was sutured, and mice were allowed to recover. […]

Ac-YGRKKRRQRRRPPFVLFHKIPLDG-NH2 [TT1Ct]
Decrease of infarct volume (female mice): 42%
Infarct volume (%) (male + female mice, 3 nmol/g i.v. 1 h after damage induction, TTC, relative to hemisphere volume, mean ± SEM, n = 19, n = 20): 10 ± 1%
Decrease of infarct volume (male mice): 45%
